Test results from US12606541B2, “PPARg modulators and methods of use” (Eisai R&D Management Co., Ltd., priority 2020, dated 2026).
Like-named read-outs stand apart in the source and are kept apart here. Blank lines part the entries; values can stand above or below the compound they belong to.

Key:
His6-TEV-PPARγ-(234-505) = target: T1, His6-TEV-PPARγ-(234-505) (Homo sapiens, UniProt P37231); assay: TR-FRET Assay to Measure Co-R Peptide Recruitment to PPARγ; type: biochemical; settings: Co-R peptide (SMRT-ID2) recruitment, top final concentration 20 μM, read-out: TR-FRET i-Ag, AC50
T1 construct: The His6-TEV-PPARγ-(234-505) protein for assay was expressed and purified; TEV cleavage site (N); made in house
T1 sequence (P37231 234-505): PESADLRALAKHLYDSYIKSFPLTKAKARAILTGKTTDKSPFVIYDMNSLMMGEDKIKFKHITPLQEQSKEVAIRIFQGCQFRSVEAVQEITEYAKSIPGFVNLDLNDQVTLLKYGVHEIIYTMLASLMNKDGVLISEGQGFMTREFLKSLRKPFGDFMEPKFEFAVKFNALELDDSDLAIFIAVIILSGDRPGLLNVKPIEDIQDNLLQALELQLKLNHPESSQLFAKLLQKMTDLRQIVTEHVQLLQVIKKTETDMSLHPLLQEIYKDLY
In short: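 Corepressor recruitment is measured by adding terbium-labeled anti-His antibody and FITC SMRT-ID2 peptide, at 5 and 200 nM final, after a 20-minute room-temperature protein–compound incubation. After one further hour, signal is converted to percent response between DMSO and 500 nM T0070907 wells.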

UM-UC-9 engineered cells = assay: Cell proliferation / short-term viability assay, CellTiter-Glo 144 h; type: cell-based, human; settings: read-out: CTGlo 144 h UMUC9.5, G150
In short: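 Viability read by CellTiter-Glo 2.0 luminescence at day 7 versus DMSO-vehicle wells and a T0 plate measured on day 0. Cells: UM-UC-9 engineered assay-ready stocks, 500 cells/well in high-glucose DMEM with 10% FBS, 37° C, 5% CO2.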

SMILES: COc1cc(-c2cc(C(=O)N3CCC(C(=O)NC4CCC(C)CC4)CC3)n[nH]2)c(F)cn1 (single isomer, unassigned) [Example 114-A]
AC50 (His6-TEV-PPARγ-(234-505); listed as 114a): 3470 nM | IC50 (UM-UC-9 engineered cells; listed as 114a): 4430 nM

SMILES: COc1cc(-c2cc(C(=O)N3CCC(C(=O)NC4CCC(C)CC4)CC3)n[nH]2)c(F)cn1 (single isomer, unassigned) [Example 114-B]
AC50 (His6-TEV-PPARγ-(234-505); listed as 114b): 15.8 nM | IC50 (UM-UC-9 engineered cells; listed as 114b): 26.8 nM

SMILES: COc1cc(-c2cc(C(=O)N3CCC(C(=O)NC(C)c4cccc(Cl)c4)CC3)n[nH]2)c(Cl)cn1 (single isomer, unassigned) [Example 115-A]
AC50 (His6-TEV-PPARγ-(234-505); listed as 115a): 717 nM | IC50 (UM-UC-9 engineered cells; listed as 115a): 1320 nM

SMILES: COc1cc(-c2cc(C(=O)N3CCC(C(=O)NC(C)c4cccc(Cl)c4)CC3)n[nH]2)c(Cl)cn1 (single isomer, unassigned) [Example 115-B]
AC50 (His6-TEV-PPARγ-(234-505); listed as 115b): 59.5 nM | IC50 (UM-UC-9 engineered cells; listed as 115b): 263 nM

SMILES: COc1cc(-c2cc(C(=O)N3CCC(C(=O)NC4CCC(C(F)(F)F)CC4)CC3)n[nH]2)c(Cl)cn1 (single isomer, unassigned) [Example 118-A]
AC50 (His6-TEV-PPARγ-(234-505); listed as 118a): 15.5 nM | IC50 (UM-UC-9 engineered cells; listed as 118a): 116 nM

SMILES: COc1cc(-c2cc(C(=O)N3CCC(C(=O)NC4CCC(C(F)(F)F)CC4)CC3)n[nH]2)c(Cl)cn1 (single isomer, unassigned) [Example 118-B]
AC50 (His6-TEV-PPARγ-(234-505); listed as 118b): 964 nM | IC50 (UM-UC-9 engineered cells; listed as 118b): 2960 nM

SMILES: COc1cc(-c2cc(C(=O)N3[C@@H]4CC[C@H]3C[C@H](C(=O)N[C@H]3CC[C@@](O)(C(F)(F)F)CC3)C4)n[nH]2)c(F)cn1 (single isomer, unassigned) [Example 170-A]
AC50 (His6-TEV-PPARγ-(234-505)): 4.7 nM | IC50 (UM-UC-9 engineered cells; Homo sapiens, UM-UC-9, 144 h): 11.8 nM

SMILES: COc1cc(-c2cc(C(=O)N3CC[C@H](C(=O)NCc4cccc(Cl)c4)CC34CC4)n[nH]2)c(Cl)cn1 (single isomer, unassigned) [Example 245-A]
AC50 (His6-TEV-PPARγ-(234-505)): 8.3 nM | IC50 (UM-UC-9 engineered cells; Homo sapiens, UM-UC-9, 144 h): 4.1 nM

SMILES: COc1cc(-c2cc(C(=O)N3CC[C@@H](C(=O)NCc4cccc(Cl)c4)CC34CC4)n[nH]2)c(Cl)cn1 (single isomer, unassigned) [Example 245-B]
AC50 (His6-TEV-PPARγ-(234-505)): 109 nM | IC50 (UM-UC-9 engineered cells; Homo sapiens, UM-UC-9, 144 h): 415 nM

SMILES: COc1cc(-c2cc(C(=O)N3CC[C@H](C(=O)NCc4cccc(Cl)c4)CC3(C)C)n[nH]2)c(Cl)cn1 (single isomer, unassigned) [Example 255-A]
AC50 (His6-TEV-PPARγ-(234-505)): 49.6 nM | IC50 (UM-UC-9 engineered cells; Homo sapiens, UM-UC-9, 144 h): 141 nM

SMILES: COc1cc(-c2cc(C(=O)N3CC[C@@H](C(=O)NCc4cccc(Cl)c4)CC3(C)C)n[nH]2)c(Cl)cn1 (single isomer, unassigned) [Example 255-B]
AC50 (His6-TEV-PPARγ-(234-505)): 1760 nM | IC50 (UM-UC-9 engineered cells; Homo sapiens, UM-UC-9, 144 h): 4120 nM

SMILES: COc1cc(-c2cc(C(=O)N3CC[C@H](C(=O)NCc4cccc(Cl)c4)CC34CCC4)n[nH]2)c(Cl)cn1 (single isomer, unassigned) [Example 256-A]
AC50 (His6-TEV-PPARγ-(234-505)): 92.4 nM | IC50 (UM-UC-9 engineered cells; Homo sapiens, UM-UC-9, 144 h): 72.6 nM

SMILES: COc1cc(-c2cc(C(=O)N3CC[C@@H](C(=O)NCc4cccc(Cl)c4)CC34CCC4)n[nH]2)c(Cl)cn1 (single isomer, unassigned) [Example 256-B]
AC50 (His6-TEV-PPARγ-(234-505)): 15900 nM | IC50 (UM-UC-9 engineered cells; Homo sapiens, UM-UC-9, 144 h): 3520 nM

SMILES: COc1cc(-c2cc(C(=O)N3[C@@H]4CC[C@H]3C[C@H](C(=O)NC3CCC(C(F)(F)F)OC3)C4)n[nH]2)c(F)cn1 (single isomer, unassigned) [Example 280-A]
AC50 (His6-TEV-PPARγ-(234-505)): 895 nM | IC50 (UM-UC-9 engineered cells; Homo sapiens, UM-UC-9, 144 h): 5800 nM

SMILES: COc1cc(-c2cc(C(=O)N3CC[C@H](C(=O)NCc4ccc5[nH]nc(F)c5c4)CC34CC4)n[nH]2)c(F)cn1 (single isomer, unassigned) [Example 288-A]
AC50 (His6-TEV-PPARγ-(234-505)): 4.4 nM | IC50 (UM-UC-9 engineered cells; Homo sapiens, UM-UC-9, 144 h): 0.9 nM

SMILES: COc1cc(-c2cc(C(=O)N3CC[C@@H](C(=O)NCc4ccc5[nH]nc(F)c5c4)CC34CC4)n[nH]2)c(F)cn1 (single isomer, unassigned) [Example 288-B]
AC50 (His6-TEV-PPARγ-(234-505)): 39 nM | IC50 (UM-UC-9 engineered cells; Homo sapiens, UM-UC-9, 144 h): 56.8 nM

SMILES: CCOC1(C(F)(F)F)CCC(NC(=O)[C@@H]2C[C@H]3CC[C@@H](C2)N3C(=O)c2cc(-c3cc(OC)ncc3F)[nH]n2)CC1 (single isomer, unassigned) [Example 303-B]
AC50 (His6-TEV-PPARγ-(234-505)): 29.8 nM | IC50 (UM-UC-9 engineered cells; Homo sapiens, UM-UC-9, 144 h): 82 nM

Further lines, with some results ahead:

AC50 (His6-TEV-PPARγ-(234-505)): 79 nM
SMILES: COc1cc(-c2cc(C(=O)N3CC[C@@H](C(=O)N[C@H]4CC[C@@](O)(C(F)(F)F)CC4)CC34CC4)n[nH]2)c(F)cn1 (single isomer, unassigned) [Example 169-A]
IC50 (UM-UC-9 engineered cells; Homo sapiens, UM-UC-9, 144 h): 273 nM

AC50 (His6-TEV-PPARγ-(234-505)): 2.3 nM
SMILES: COc1cc(-c2cc(C(=O)N3CC[C@H](C(=O)N[C@H]4CC[C@@](O)(C(F)(F)F)CC4)CC34CC4)n[nH]2)c(F)cn1 (single isomer, unassigned) [Example 169-B]
IC50 (UM-UC-9 engineered cells; Homo sapiens, UM-UC-9, 144 h): 1.4 nM

AC50 (His6-TEV-PPARγ-(234-505)): 304 nM
SMILES: COc1cc(-c2cc(C(=O)N3CC[C@@H](C(=O)N[C@H]4CC[C@@](O)(C(F)(F)F)CC4)CC34CC4)n[nH]2)c(Cl)cn1 (single isomer, unassigned) [Example 286-A]
IC50 (UM-UC-9 engineered cells; Homo sapiens, UM-UC-9, 144 h): 460 nM

AC50 (His6-TEV-PPARγ-(234-505)): 2.2 nM
SMILES: COc1cc(-c2cc(C(=O)N3CC[C@H](C(=O)N[C@H]4CC[C@@](O)(C(F)(F)F)CC4)CC34CC4)n[nH]2)c(Cl)cn1 (single isomer, unassigned) [Example 286-B]
IC50 (UM-UC-9 engineered cells; Homo sapiens, UM-UC-9, 144 h): 1.5 nM

AC50 (His6-TEV-PPARγ-(234-505)): 2.3 nM
SMILES: Cc1cc(-c2cc(C(=O)N3CC[C@H](C(=O)N[C@H]4CC[C@@](O)(C(F)(F)F)CC4)CC34CC4)n[nH]2)c(F)cn1 (single isomer, unassigned) [Example 287-A]
IC50 (UM-UC-9 engineered cells; Homo sapiens, UM-UC-9, 144 h): 2.4 nM

AC50 (His6-TEV-PPARγ-(234-505)): 118 nM
SMILES: Cc1cc(-c2cc(C(=O)N3CC[C@@H](C(=O)N[C@H]4CC[C@@](O)(C(F)(F)F)CC4)CC34CC4)n[nH]2)c(F)cn1 (single isomer, unassigned) [Example 287-B]
IC50 (UM-UC-9 engineered cells; Homo sapiens, UM-UC-9, 144 h): 184 nM

AC50 (His6-TEV-PPARγ-(234-505)): 281 nM
SMILES: CO[C@]1(C(F)(F)F)CC[C@@H](NC(=O)[C@@H]2CCN(C(=O)c3cc(-c4cc(C)ncc4F)[nH]n3)C3(CC3)C2)CC1 (single isomer, unassigned) [Example 293-A]
IC50 (UM-UC-9 engineered cells; Homo sapiens, UM-UC-9, 144 h): 874 nM

AC50 (His6-TEV-PPARγ-(234-505)): 1640 nM
SMILES: CO[C@]1(C(F)(F)F)CC[C@H](NC(=O)[C@@H]2CCN(C(=O)c3cc(-c4cc(C)ncc4F)[nH]n3)C3(CC3)C2)CC1 (single isomer, unassigned) [Example 293-B]
IC50 (UM-UC-9 engineered cells; Homo sapiens, UM-UC-9, 144 h): 3240 nM

AC50 (His6-TEV-PPARγ-(234-505)): 2.8 nM
SMILES: CO[C@]1(C(F)(F)F)CC[C@@H](NC(=O)[C@H]2CCN(C(=O)c3cc(-c4cc(C)ncc4F)[nH]n3)C3(CC3)C2)CC1 (single isomer, unassigned) [Example 293-C]
IC50 (UM-UC-9 engineered cells; Homo sapiens, UM-UC-9, 144 h): 1.6 nM

AC50 (His6-TEV-PPARγ-(234-505)): 17 nM
SMILES: CO[C@]1(C(F)(F)F)CC[C@H](NC(=O)[C@H]2CCN(C(=O)c3cc(-c4cc(C)ncc4F)[nH]n3)C3(CC3)C2)CC1 (single isomer, unassigned) [Example 293-D]
IC50 (UM-UC-9 engineered cells; Homo sapiens, UM-UC-9, 144 h): 86 nM

AC50 (His6-TEV-PPARγ-(234-505)): 2 nM
SMILES: CCO[C@]1(C(F)(F)F)CC[C@@H](NC(=O)[C@H]2CCN(C(=O)c3cc(-c4cc(C)ncn4)[nH]n3)C3(CC3)C2)CC1 (single isomer, unassigned) [Example 308-C]
IC50 (UM-UC-9 engineered cells; Homo sapiens, UM-UC-9, 144 h): 5.9 nM

AC50 (His6-TEV-PPARγ-(234-505)): 25.6 nM
SMILES: CCO[C@]1(C(F)(F)F)CC[C@H](NC(=O)[C@H]2CCN(C(=O)c3cc(-c4cc(C)ncn4)[nH]n3)C3(CC3)C2)CC1 (single isomer, unassigned) [Example 308-D]
IC50 (UM-UC-9 engineered cells; Homo sapiens, UM-UC-9, 144 h): 192 nM

AC50 (His6-TEV-PPARγ-(234-505)): 635 nM
SMILES: CCO[C@]1(C(F)(F)F)CC[C@@H](NC(=O)[C@@H]2CCN(C(=O)c3cc(-c4cc(C)ncn4)[nH]n3)C3(CC3)C2)CC1 (single isomer, unassigned) [Example 308-E]
IC50 (UM-UC-9 engineered cells; Homo sapiens, UM-UC-9, 144 h): 2560 nM

AC50 (His6-TEV-PPARγ-(234-505)): 6360 nM
SMILES: CCO[C@]1(C(F)(F)F)CC[C@H](NC(=O)[C@@H]2CCN(C(=O)c3cc(-c4cc(C)ncn4)[nH]n3)C3(CC3)C2)CC1 (single isomer, unassigned) [Example 308-F]
IC50 (UM-UC-9 engineered cells; Homo sapiens, UM-UC-9, 144 h): 192 nM
